pIC50: −log10 of the molar value.
Target: Terminally biotinylated beta-amyloid (Aβ42) (Homo sapiens, UniProt P05067)
Test: Aβ42 biotinylated (biotin-AB) oligomerization assay, NeutrAvidin capture ELISA
Type: biochemical
Details: approximate value; 1 hr oligomerization at room temperature; read-out: IC50 Aβ 42-bio
Procedure: Aβ42 Biotinylated Assay Terminally biotinylated beta-amyloid (biotin-AB) was dissolved in HFIP at the concentration of 1 mg/ml and aliquoted to 50 μl/tube in 0.65 ml colored microfuge tubes (Fisher 02-681-248). The aliquots were diluted immediately by adding 450 μl of HFIP to 0.1 mg/ml. Approximately 46 ul (containing approximately 4.6 ug of biotin-AB) were taken from a tube, 100 ul of HFIP added, vortexed, and dried to a thin film under an N2 stream. 100 μl of trifluoroacetic acid (TFA) was added and vortexed. After 10 minute incubation at room temperature in a hood, resulting in disaggregation of seeds, the sample was vortexed again and dried again to a thin film under an N2 stream. 100 μl of HFIP was added, mixed, and the biotin-AB sample was dried for a third time under an N2 stream to remove residual TFA. The treated biotin-AB was dissolved in DMSO to a final peptide concentration of […] (SOX). An ELISA “capture” plate (Costar 9018) was coated with 50 μl of 1 μg/ml NeutrAvidin™ (NA) in 10 mM sodium phosphate buffer, pH 7.5. (NeutrAvidin can be prepared as 1 mg/ml (1000×) in milliQ water/10% glycerol and stored at −80° C. before use.) The plate was sealed plate with adhesive film and stored at 4° C. overnight, then blocked for 2 hours (unsealed) at room temperature with 200 μl/well OFB+0.1% v/v Tween 20. The “capture” plate was allowed to come to room temperature. Several dilutions of test compound were prepared with 100% DMSO, according to the desired concentration to be tested. 2.5 μl of diluted test compound was pipetted into the bottom of each well of a 96-well “dilution” polypropylene plate (Costar 3365), to which was added 250 ul of Oligomer Formation Buffer (OFB: 20 mM sodium phosphate, pH 7.5-150 mM NaCl). To begin oligomerization, 2 μl/well of the biotin-AB was added to the bottom of each well of a 96-well “reaction” polypropylene plate (Costar 3365) and 100 ul of each well of the “dilution” plate was transferred to the “reaction” plate (final concentration of DMSO being up to 1%). The reaction plate was sealed and incubated for 1 hr at room temperature without shaking. The reaction was then stopped by the addition of 50 ul of 0.3% Tween 20 in water. The “capture” plate blocking solution was removed, and 50 ul of each well of the “reaction” plate was transferred to each well of the “capture” plate. The “capture” plate was sealed and incubated for 2 hours at room temperature with shaking at 150 rpm. The “capture” plate was then washed on a plate washer (3×) with 200 ul/well TBST (20 mM Tris-HCL, pH 7.5/150 mM NaCl/0.1% Tween 20). 50 ul of Streptavidin-horseradish […] (1:20,000 dilution) in OFB+0.1% Tween 20 was added to each well, the “capture” plate was sealed and incubated for 1 hr with shaking at 150 rpm. As before, the plate was washed, then 100 ul of TMB/H2O2 substrate solution was added to each well. After 5-10 minutes, 100 ul of 1% v/v sulfuric acid was added and the absorbance of each well was read at 450 nm using a standard plate reader. Data is summarized in the table below; numbers given in parenthesis for the Aβ 40 Thioflavin T assays are the values in that particular experiment for compound ID 1027, given as the first entry in this table for structural comparison. “IC50 Aβ42-bio” column refers to the approximate value of the Aβ42 biotinylated assay IC50 in micromoles/L.

Terminally biotinylated beta-amyloid (Aβ42), sequence (P05067 672-713, species assumed): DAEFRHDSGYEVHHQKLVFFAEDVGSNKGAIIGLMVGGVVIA

SMILES	pIC50
OCc1ccccc1-c1cc(N2CC(CN3CCOCC3)C2)c2nonc2c1 [compound 1572]	< 4.70
CC(c1cc(N2CC(CN3CCCC3)C2)c2nonc2c1)N(C1CC1)S(C)(=O)=O (centres unmarked) [compound 1549]	5.26
COc1cc(N2CC(CN3CCOCC3)C2)c2nonc2c1 [compound 1611, 6-methoxy-4-(3-(morpholinomethyl)azetidin-1-yl)benzo[c][1,2,5]oxadiazole]	< 4.70
OC(c1ncoc1-c1cc(N2CC(CN3CCOCC3)C2)c2nonc2c1)C(F)(F)F (centres unmarked) [compound 1667]	4.76
Cn1ncc(-c2cc(N3CC(CN4CCOCC4)C3)c3nonc3c2)c1C(O)C(F)(F)F (centres unmarked) [compound 1647]	4.83
OCc1ccc(-c2cc(N3CC(CN4CCOCC4)C3)c3nonc3c2)cc1 [compound 1592]	4.82
CC(C)(O)c1cccc(-c2cc(N3CC(CN4CCOCC4)C3)c3nonc3c2)c1 [compound 1617]	4.84
OC(CCc1cc(N2CC(CN3CCCC3)C2)c2nonc2c1)C(F)(F)F (centres unmarked) [compound 1553]	4.92
OC(c1cncc(-c2cc(N3CC(CN4CCCC4)C3)c3nonc3c2)c1)C(F)(F)F (centres unmarked) [compound 1544]	5.41
OCc1nc(-c2cc(N3CC(CN4CCOCC4)C3)c3nonc3c2)no1 [compound 1629]	4.80

Next, values leading:

pIC50	SMILES
< 4.70	COc1cc(N2CC(CN3CCOCC3)C2)c2nonc2c1C [compound 1613, 5-methoxy-4-methyl-7-(3-(morpholinomethyl)azetidin-1-yl)benzo[c][1,2,5]oxadiazole]
5.24	COc1ccc(-c2cc(N3CC(CN4CCOCC4)C3)c3nonc3c2)cc1F [compound 1585, 6-(3-fluoro-4-methoxyphenyl)-4-(3-(morpholinomethyl)azetidin-1-yl) benzo[c][1,2,5]oxadiazole]
< 4.70	OC1(c2ccccc2-c2cc(N3CC(CN4CCOCC4)C3)c3nonc3c2)COC1 [compound 1663]
4.91	COc1cc(-c2cc(N3CC(CN4CCOCC4)C3)c3nonc3c2)ccn1 [compound 1659, 6-(2-methoxypyridin-4-yl)-4-(3-(morpholinomethyl)azetidin-1-yl) benzo[c][1,2,5]oxadiazole]
4.66	OC(/C=C/c1cc(N2CC(CN3CCOCC3)C2)c2nonc2c1)C(F)(F)F (centres unmarked) [compound 1665, (E)-1,1,1-trifluoro-4-(7-(3-(morpholinomethyl)azetidin-1-yl)benzo[c][1,2,5]oxadiazol-5-yl)but-3-en-2-ol]
4.78	OC(c1cncc(-c2cc(N3CC(CN4CCOCC4)C3)c3nonc3c2)c1)C(F)(F)F (centres unmarked) [compound 1621, 2,2,2-trifluoro-1-(5-(7-(3-(morpholinomethyl)azetidin-1-yl)benzo[c][1,2,5]oxadiazol-5-yl)pyridin-3-yl)ethan-1-ol]
4.83	N#Cc1cccc(-c2cc(N3CC(CN4CCOCC4)C3)c3nonc3c2)c1 [compound 1577, 3-(7-(3-(morpholinomethyl)azetidin-1-yl)benzo[c][1,2,5]oxadiazol-5-yl)benzonitrile]
4.48	CC(C)(O)c1nc(-c2cc(N3CC(CN4CCOCC4)C3)c3nonc3c2)no1 [compound 1628]
5.40	Clc1cc(Cl)cc(-c2cc(N3CC(CN4CCOCC4)C3)c3nonc3c2)c1 [compound 1575, 6-(3,5-dichlorophenyl)-4-(3-(morpholinomethyl)azetidin-1-yl) benzo[c][1,2,5]oxadiazole]
5.24	O=C(c1cc(N2CC(CN3CCCC3)C2)c2nonc2c1)N1CCCCC1 [compound 1552]
5.00	OCc1cccc(-c2cc(N3CC(CN4CCOCC4)C3)c3nonc3c2)c1 [compound 1598]
< 4.70	CC(C)(O)/C=C/c1cc(N2CC(CN3CCOCC3)C2)c2nonc2c1 [compound 1645, (E)-2-methyl-4-(7-(3-(morpholinomethyl)azetidin-1-yl)benzo[c][1,2,5]oxadiazol-5-yl)but-3-en-2-ol]
5.08	OC(c1cnc(-c2cc(N3CC(CN4CCCC4)C3)c3nonc3c2)s1)C(F)(F)F (centres unmarked) [compound 1546]
